# Experimental data reported in patent US12617814B2, “Neuroactive steroids and methods of use thereof” (Sage Therapeutics, LLC, priority 2013, dated 2026).
# Target: NMDA receptor (GRIN1/GRIN2A) (Homo sapiens, UniProt Q05586+Q12879)
# Assay: NMDA potentiation, two electrode voltage clamp (TEVC) of Xenopus oocytes expressing NMDA receptor
# Assay type: cell-based
# Conditions: 10 μM compound, 3 μM Glutamate and Glycine
# Procedure: (§1) NMDA potentiation was assessed using either whole cell patch clamp of mammalian cells which expressed NMDA receptors, or using two-electrode voltage clamp (TEVC) of Xenopus Laevis oocytes expressing NMDA receptors.
# The Two Electrode Voltage Clamp (TEVC) technique was used to investigate the effects of compounds (10 μM) on the NMDA receptor (GRIN1/GRIN2A) expressed in Xenopus oocytes. Glutamate/Glycine peak and steady-state currents were recorded from oocytes that expressed the NMDA receptor and the modulatory effects of the test items on these currents were investigated.
# Ovaries were harvested from Xenopus Laevis females that had been deeply anesthetized by cooling at 4° C. and immersion in Tricaine methanesulfonate (MS-222 at a concentration of 150 mg/L) in sodium bicarbonate (300 mg/L). Once anesthetized the animal was decapitated and pithed following the rules of animal rights from the Geneva canton. A small piece of ovary was isolated for immediate preparation while the remaining part was placed at 4° C. in a sterile Barth solution containing in mM NaCl 88, KCl 1, NaHCO3 2.4, HEPES 10, MgSO4·7H2O 0.82, Ca(NO3)2·4H2O 0.33, CaCl2·6H2O 0.41, at pH 7.4, and supplemented with 20 μg/ml of kanamycin, 100 unit/ml penicillin and 100 μg/ml streptomycin. All recordings were performed at 18° C. and cells were super-fused with medium containing in mM: NaCl 82.5, KCl 2.5, HEPES 5, CaCl2·2H2O, ·6H2O 1, pH 7.4.
# Oocytes were injected with either cDNAs encoding for the human GRIN1 and GRIN2A subunits, using a proprietary automated injection device (Hogg et al., J. Neurosci. Methods, (2008) 169: 65-75) and receptor expression was assessed using electrophysiology at least two days later. The ratio of cDNA injection for GRIN1 and GRIN2A was 1:1. Electrophysiological recordings were made using an automated process equipped with standard TEVC and data were captured and analyzed using a proprietary data acquisition and analysis software running under Matlab (Mathworks Inc.). The membrane potential of the oocytes was maintained at −80 mV throughout the experiments. To explore the effects of proprietary compounds, currents were evoked by applying 3 μM Glutamate and […] Glycine for 10 s. Oocytes were then washed for 90 s before being exposed to the test article at a concentration of 10 μM for 120 s. Following this, 3 μM Glutamate and […] Glycine were immediately reapplied for 10 s. Potentiation of both the peak current and the steady state current was assessed. For statistical analysis values were computed either with Excel (Microsoft) or Matlab (Mathworks Inc.). To obtain mean measurements with standard deviations, all experiments were carried out using at least three cells.
# Glutamate was prepared as a concentrated stock solution ([…]) in water and then diluted in the recording medium to obtain the desired test concentration. Glycine was prepared as a stock solution at 1 M in water. Compounds were prepared as stock solution ([…]) in DMSO and then diluted in the recording medium to obtain the desired test concentration.
# NMDA receptor (GRIN1/GRIN2A), sequence (Q12879 23-1464, other chains not shown): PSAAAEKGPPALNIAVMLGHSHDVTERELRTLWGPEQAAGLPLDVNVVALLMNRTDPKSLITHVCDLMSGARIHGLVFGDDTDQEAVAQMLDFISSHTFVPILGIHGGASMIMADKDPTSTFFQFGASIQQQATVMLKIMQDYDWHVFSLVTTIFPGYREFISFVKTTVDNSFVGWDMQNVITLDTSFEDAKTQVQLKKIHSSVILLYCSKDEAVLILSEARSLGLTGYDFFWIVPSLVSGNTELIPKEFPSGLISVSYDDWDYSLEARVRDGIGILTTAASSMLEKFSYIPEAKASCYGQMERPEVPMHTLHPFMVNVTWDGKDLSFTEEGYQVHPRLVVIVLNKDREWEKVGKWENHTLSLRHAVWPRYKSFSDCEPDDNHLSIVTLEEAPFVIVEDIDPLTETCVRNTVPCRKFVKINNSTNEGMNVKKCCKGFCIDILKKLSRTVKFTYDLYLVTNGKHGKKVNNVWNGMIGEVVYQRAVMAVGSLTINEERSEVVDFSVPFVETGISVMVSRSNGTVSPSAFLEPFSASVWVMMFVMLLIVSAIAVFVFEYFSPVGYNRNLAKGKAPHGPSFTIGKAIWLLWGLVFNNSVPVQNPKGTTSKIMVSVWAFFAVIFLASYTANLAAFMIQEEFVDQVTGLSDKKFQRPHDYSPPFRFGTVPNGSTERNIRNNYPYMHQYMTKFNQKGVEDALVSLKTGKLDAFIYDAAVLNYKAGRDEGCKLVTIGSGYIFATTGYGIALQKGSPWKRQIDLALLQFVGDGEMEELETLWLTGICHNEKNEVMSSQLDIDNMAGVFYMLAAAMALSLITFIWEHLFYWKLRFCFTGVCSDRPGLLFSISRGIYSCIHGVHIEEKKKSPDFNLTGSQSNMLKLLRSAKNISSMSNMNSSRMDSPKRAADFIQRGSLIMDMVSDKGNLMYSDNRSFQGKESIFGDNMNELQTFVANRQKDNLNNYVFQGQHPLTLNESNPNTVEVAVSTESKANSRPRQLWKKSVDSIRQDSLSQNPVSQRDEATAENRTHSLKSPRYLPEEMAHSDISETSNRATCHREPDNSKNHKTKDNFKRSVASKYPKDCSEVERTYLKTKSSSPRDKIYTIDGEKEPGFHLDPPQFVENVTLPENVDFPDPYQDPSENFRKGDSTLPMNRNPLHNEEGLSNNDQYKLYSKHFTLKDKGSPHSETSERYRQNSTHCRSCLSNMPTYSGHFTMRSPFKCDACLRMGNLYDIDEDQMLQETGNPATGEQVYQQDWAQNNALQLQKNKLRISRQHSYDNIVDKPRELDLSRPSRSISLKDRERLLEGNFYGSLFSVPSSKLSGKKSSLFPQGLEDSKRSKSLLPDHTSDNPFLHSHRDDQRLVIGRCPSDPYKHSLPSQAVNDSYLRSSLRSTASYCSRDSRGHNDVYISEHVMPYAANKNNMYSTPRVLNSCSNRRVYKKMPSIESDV
row,SMILES,activation at 10 µM
1,C#C[C@](C)(O)CC[C@@H](C)[C@H]1CC[C@H]2[C@@H]3CC=C4C[C@@](C)(O)CC[C@]4(C)[C@H]3CC[C@]12C [Compound 10-3],10 to 50%
2,C#C[C@@](C)(O)CC[C@@H](C)[C@H]1CC[C@H]2[C@@H]3CC=C4C[C@@](C)(O)CC[C@]4(C)[C@H]3CC[C@]12C [Compound 10-4],10 to 50%
3,C#CC(C)(O)CC[C@@H](C)[C@H]1CC[C@H]2[C@@H]3CC[C@H]4C[C@@](C)(O)CC[C@]4(C)[C@H]3CC[C@]12C (stereo partly shown) [Compound 10-6],50 to 100%
4,C=CC(C)(O)CC[C@@H](C)[C@H]1CC[C@H]2[C@@H]3CC[C@H]4C[C@@](C)(O)CC[C@]4(C)[C@H]3CC[C@]12C (stereo partly shown) [Compound 10-7],50 to 100%
5,C#C[C@](C)(O)CC[C@@H](C)[C@H]1CC[C@H]2[C@@H]3CC[C@H]4C[C@@](C)(O)CC[C@]4(C)[C@H]3CC[C@]12C [Compound 10-8],50 to 100%
6,C#C[C@@](C)(O)CC[C@@H](C)[C@H]1CC[C@H]2[C@@H]3CC[C@H]4C[C@@](C)(O)CC[C@]4(C)[C@H]3CC[C@]12C [Compound 10-9],10 to 50%
7,C=C[C@](C)(O)CC[C@@H](C)[C@H]1CC[C@H]2[C@@H]3CC[C@H]4C[C@@](C)(O)CC[C@]4(C)[C@H]3CC[C@]12C [Compound 10-10],10 to 50%
8,C=C[C@@](C)(O)CC[C@@H](C)[C@H]1CC[C@H]2[C@@H]3CC[C@H]4C[C@@](C)(O)CC[C@]4(C)[C@H]3CC[C@]12C [Compound 10-11],10 to 50%
9,C=C[C@](C)(O)CC[C@@H](C)[C@H]1CC[C@H]2[C@@H]3CC=C4C[C@@](C)(O)CC[C@]4(C)[C@H]3CC[C@]12C [Compound 10-12A],10 to 50%
10,C=C[C@@](C)(O)CC[C@@H](C)[C@H]1CC[C@H]2[C@@H]3CC=C4C[C@@](C)(O)CC[C@]4(C)[C@H]3CC[C@]12C [Compound 10-12B],10 to 50%
11,C=CC(C)(O)CC[C@@H](C)[C@H]1CC[C@H]2[C@@H]3CC=C4C[C@@](C)(O)CC[C@]4(C)[C@H]3CC[C@]12C (stereo partly shown) [Compound 10-12],10 to 50%
12,C[C@H](CCC(C)(O)CCO)[C@H]1CC[C@H]2[C@@H]3CC=C4C[C@@](C)(O)CC[C@]4(C)[C@H]3CC[C@]12C (stereo partly shown) [Compound 10-13],50 to 100%
13,COCCC(C)(O)CC[C@@H](C)[C@H]1CC[C@H]2[C@@H]3CC=C4C[C@@](C)(O)CC[C@]4(C)[C@H]3CC[C@]12C (stereo partly shown) [Compound 10-14],50 to 100%
14,C[C@H](CC[C@@](C)(O)CCO)[C@H]1CC[C@H]2[C@@H]3CC[C@H]4C[C@@](C)(O)CC[C@]4(C)[C@H]3CC[C@]12C [Compound 10-16],10 to 50%
15,COCC[C@](C)(O)CC[C@@H](C)[C@H]1CC[C@H]2[C@@H]3CC[C@H]4C[C@@](C)(O)CC[C@]4(C)[C@H]3CC[C@]12C [Compound 10-17],> 100%
16,C[C@H](CC[C@](C)(O)CCO)[C@H]1CC[C@H]2[C@@H]3CC[C@H]4C[C@@](C)(O)CC[C@]4(C)[C@H]3CC[C@]12C [Compound 10-18],50 to 100%
17,COCC[C@@](C)(O)CC[C@@H](C)[C@H]1CC[C@H]2[C@@H]3CC[C@H]4C[C@@](C)(O)CC[C@]4(C)[C@H]3CC[C@]12C [Compound 10-19],10 to 50%
18,C[C@H](CC[C@@](C)(O)CCO)[C@H]1CC[C@H]2[C@@H]3CC=C4C[C@@](C)(O)CC[C@]4(C)[C@H]3CC[C@]12C [Compound 10-20],10 to 50%
19,C[C@H](CC[C@](C)(O)CCO)[C@H]1CC[C@H]2[C@@H]3CC=C4C[C@@](C)(O)CC[C@]4(C)[C@H]3CC[C@]12C [Compound 10-21],10 to 50%
20,COCC[C@](C)(O)CC[C@@H](C)[C@H]1CC[C@H]2[C@@H]3CC=C4C[C@@](C)(O)CC[C@]4(C)[C@H]3CC[C@]12C [Compound 10-22],50 to 100%
21,COCC[C@@](C)(O)CC[C@@H](C)[C@H]1CC[C@H]2[C@@H]3CC=C4C[C@@](C)(O)CC[C@]4(C)[C@H]3CC[C@]12C [Compound 10-23],10 to 50%
22,C[C@H](CC(F)(F)[C@H](C)O)[C@H]1CC[C@H]2[C@@H]3CC=C4C[C@@](C)(O)CC[C@]4(C)[C@H]3CC[C@]12C [Compound 11-15],10 to 50%
23,C[C@H](CC(F)(F)[C@@H](C)O)[C@H]1CC[C@H]2[C@@H]3CC=C4C[C@@](C)(O)CC[C@]4(C)[C@H]3CC[C@]12C [Compound 11-16],10 to 50%
24,C[C@H](CC(F)(F)C(C)(C)O)[C@H]1CC[C@H]2[C@@H]3CC=C4C[C@@](C)(O)CC[C@]4(C)[C@H]3CC[C@]12C [Compound 11-19],10 to 50%

# Target: T1, NMDA receptor (GRIN1/GRIN2A subunits) (Homo sapiens, UniProt Q05586+Q12879)
# T1 construct: expressed in transfected cells
# Assay: NMDA potentiation, whole-cell patch clamp of HEK cells expressing NMDA receptor
# Assay type: cell-based
# Conditions: HEK293, 0.1 uM compound; HEK cells; 30 μM NMDA and 5.0 μM Glycine; read-out: NMDA 1a2A (%) Potentiation 0.1 uM
# Procedure: as §1
# NMDA/Glycine peak and steady-state currents were recorded from stably transfected cells expressing the NMDA receptor and the modulatory effects of the test items on these currents were investigated.
# Cells were stably transfected with human GRIN1 (variant NR1-3). These cells were transiently transfected (Lipofectamine™) with GRIN2A cDNA and CD8 (pLeu) antigene cDNA. About 24-72 hours following transfection 1 μl Dynabeads M-45 CD8 was added to identify successfully transfected cells (Jurman et al., Biotechniques (1994) 17:876-881). Cells were passaged to a confluence of 50-80%. Cells were seeded onto Poly-L-Lysine coated cover slips covered with culture complete medium in a 35 mm culture dish. Confluent clusters of cells are electrically coupled (Pritchett et al., Science (1988), 242:1306-8). Because responses in distant cells are not adequately voltage clamped and because of uncertainties about the extent of coupling (Verdoorn et al., Neuron (1990), 4:919-28), cells were cultivated at a density that enables single cells (without visible connections to neighboring cells) to be measured. Cells were incubated at 37° C. in a humidified atmosphere with 5% CO2 (rel. humidity about 95%). The cells were continuously maintained in and passaged in sterile culture flasks containing a 1:1 mixture of Dulbecco's modified eagle medium and nutrient mixture F-12 (D-MEM/F-12 1×, liquid, with L-Glutamine) supplemented with 9% fetal bovine serum and 0.9% Penicillin/Streptomycin solution. The complete medium was supplemented with 3.0 μg/ml Puromycin.
# Whole cell currents were measured with HEKA EPC-10 amplifiers using PatchMaster software. Cell culture dishes for recordings were placed on the dish holder of the microscope and continuously perfused (1 ml/min) with “bath solution” (NaCl 137 mM, KCl 4 mM, CaCl2 1.8 mM, MgCl2 1 mM, HEPES 10 mM, D-Glucose 10 mM, pH (NaOH) 7.4). All solutions applied to cells including the pipette solution were maintained at room temperature (19° C.-30° C.). After formation of a Gigaohm seal between the patch electrodes and transfected individual HEK 293 cells (pipette resistance range: 2.5 MΩ-6.0 MΩ; seal resistance range: >1 GQ) the cell membrane across the pipette tip was ruptured to assure electrical access to the cell interior (whole-cell patch-configuration). At this point the bath solution is switched to “NMDA bath solution” (NaCl 137 mM, KCl 4 mM, CaCl2 2.8 mM, HEPES 10 mM, D-Glucose 10 mM, Cremophore 0.02%, pH (NaOH) 7.4). NMDA inward currents were measured upon application of 30 μM NMDA (and 5.0 μM Glycine) to patch-clamped cells (2 applications) for 5 s. The cells were voltage clamped at a holding potential of −80 mV. For the analysis of test articles, NMDA receptors were stimulated by 30 μM NMDA and 5.0 μM Glycine after sequential pre-incubation of increasing concentrations of the test article. Pre-incubation duration was 30 s. Stimulation duration was 5 s Test articles were dissolved in DMSO to form stock solutions of 0.1 mM and 1 mM. Test articles were diluted to 0.1 μM and 1 μM in “NMDA bath solution”. Both concentrations of test articles were tested on each cell. The same concentration was applied at least three times or until the steady state current amplitude was reached. Every day one cell was tested with 50 μM PREGS (positive control) using the same application protocol to test whether cells were successfully transfected with NMDA receptors.
# T1 sequence (Q12879 23-1464, other chains not shown): as above
row,SMILES,activation at 0.1 µM
1,"CC(O)CCC(C)[C@H]1CC[C@H]2[C@@H]3CC=C4C[C@@H](O)CC[C@]4(C)[C@H]3CC[C@]12C (stereo partly shown) [Comparison compound 1, reference compound]",10 to 75%
2,"CC(CCC(C)(C)O)[C@H]1CC[C@H]2[C@@H]3CC=C4C[C@@](C)(O)CC[C@]4(C)[C@H]3CC[C@]12C (stereo partly shown) [Comparison compound 2, reference compound]",75 to 150%

# Same assay, conditions: HEK293, 1 uM compound; HEK cells; 30 μM NMDA and 5.0 μM Glycine; read-out: NMDA 1a2A (%) Potentiation 1 uM
row,SMILES,activation at 1 µM
1,"CC(O)CCC(C)[C@H]1CC[C@H]2[C@@H]3CC=C4C[C@@H](O)CC[C@]4(C)[C@H]3CC[C@]12C (stereo partly shown) [Comparison compound 1, reference compound]",75 to 150%
2,"CC(CCC(C)(C)O)[C@H]1CC[C@H]2[C@@H]3CC=C4C[C@@](C)(O)CC[C@]4(C)[C@H]3CC[C@]12C (stereo partly shown) [Comparison compound 2, reference compound]",> 250%
